These are literature values, as cited in US20220133691A1, “LASOFOXIFENE TREATMENT OF VVA AND OSTEOPOROSIS IN SURVIVORS OF BREAST CANCER AND OTHER MALIGNANCIES” (Sermonix Pharmaceuticals, Inc., priority 2016, published 2022).

The subject of the series is post-menopausal women with osteoporosis. The following applies: PEARL trial.

Structures are written as SMILES.

Consider `Oc1ccc2c(c1)CC[C@H](c1ccccc1)[C@@H]2c1ccc(OCCN2CCCC2)cc1` [lasofoxifene], for which the risk of osteoporosis result (Cummings et al., NEJM 2010) is given as “reduce the risk of osteoporosis”. In addition, for the setting “post-menopausal women with osteoporosis, LaCroix et al., JNCI 2010”, the “risk of breast cancer” value is “reduced the risk of breast cancer”.
